According to paper PMC11979273, “A phase I study to evaluate the safety, tolerability, and pharmacokinetics of HEC113995PA·H2O, a novel dual-acting serotonergic antidepressant, in healthy subjects” (Frontiers in Pharmacology, 2025):

Legend:
[1] = molecular target: 5-HT transporter (Homo sapiens, UniProt P31645); assay: In vitro affinity and antagonistic activity for the 5-HT transporter; type: binding; conditions: unpublished data
[2] = Multiple ascending-dose study, safety (adverse events); type: in vivo
Protocol: Three drug doses (10, 20 and 40 mg) were utilized. A total of 36 healthy subjects of both genders were assigned randomly to the three groups (n = 12), with10 subjects taking HEC113995PA·H2O tablets and 2 taking placebo. The participants in the 10 mg dose group received a single dose daily in the morning after overnight fasting, or a single dose daily after a standard meal in the 20 mg and 40 mg dose groups for 10 consecutive days. Serial blood samples were collected within 0.5 h before drug administration on days 7, 8 and 9, and before and after drug administration on days 1 and 10 to determine plasma concentration and pharmacokinetic characteristics. Safety and tolerability were evaluated on days 4, 8, 13 and 15.
The trial was conducted in a dose-escalation manner, with the administration of the next dose arm only after the tolerability and safety of the previous arm had been fully evaluated. Following the assessments by both the investigator and the sponsor, the next dose level could be reverted to the previous dose group if deemed necessary. In such cases, twelve new healthy subjects (10 taking HEC113995PA·H2O tablets and 2 taking placebo) were enrolled to explore the maximum safe tolerated dose. Throughout the entire trial (including the SAD trial, FE trial and MAD trial), each subject was only allowed to participate in one dose group.
Safety indicators were assessed through adverse events (AE), clinical laboratory tests (including blood routine, blood biochemistry, urine routine), vital signs monitoring (ear temperature), pulse, respiration and blood pressure in a sitting position), 12-lead electrocardiogram (ECG) and physical examinations. Adverse events (AE) and serious adverse events (SAE) were evaluated following the criteria outlined in National Cancer Institute Common Terminology Criteria for Adverse Events (NCI-CTCAE) version 5.0.
Any adverse events that occurred in all subjects during the clinical trial were recorded with the following details: AE name, occurrence time, end time, severity, whether it was classified as a SAE, severity criteria (if applicable), treatment measures and outcomes, actions taken on investigational drug due to the AE, and the causal relationship between the AE and administrated drug, etc. Each AE was recorded separately.
The subjects were under close monitoring at the clinical research center until the sample retention and safety evaluation were completed. During the safety trial, drug intolerance of a given dose was defined as follows: grade 2 or higher drug-related AEs occurred in more than half of the subjects, or grade 3 or higher drug-related AEs occurred in more than one quarter of the subjects. The dose escalation was halted after drug intolerance occurred.

Sequence of 5-HT transporter (P31645 whole entry, species assumed): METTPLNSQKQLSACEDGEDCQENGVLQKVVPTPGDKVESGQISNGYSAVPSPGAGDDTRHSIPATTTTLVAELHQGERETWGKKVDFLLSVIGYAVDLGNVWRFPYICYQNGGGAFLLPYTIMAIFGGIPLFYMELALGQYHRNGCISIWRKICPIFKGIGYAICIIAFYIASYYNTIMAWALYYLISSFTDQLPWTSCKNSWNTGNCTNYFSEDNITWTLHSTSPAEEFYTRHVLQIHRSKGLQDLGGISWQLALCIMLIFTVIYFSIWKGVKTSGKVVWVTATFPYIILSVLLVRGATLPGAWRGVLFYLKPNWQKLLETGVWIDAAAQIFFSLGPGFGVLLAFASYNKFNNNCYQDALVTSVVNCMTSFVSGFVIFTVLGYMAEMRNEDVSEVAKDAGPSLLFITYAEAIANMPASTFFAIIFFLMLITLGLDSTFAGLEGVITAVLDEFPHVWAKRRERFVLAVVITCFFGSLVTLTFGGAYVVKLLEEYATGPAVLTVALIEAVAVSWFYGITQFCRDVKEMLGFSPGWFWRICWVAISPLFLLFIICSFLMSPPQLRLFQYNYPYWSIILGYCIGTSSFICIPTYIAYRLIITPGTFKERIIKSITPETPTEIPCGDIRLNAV

SMILES: Cc1nc(-c2cnc(N3CCN(CCCc4c[nH]c5ccc(C#N)cc45)CC3)nc2)sc1C(N)=O [HEC113995PA·H2O]
- affinity and antagonistic activity for the 5-HT transporter [1]: at the nanomolar level
- related TEAE: diarrhea ([2]; MAD 10 mg): 2 cases
- related TEAE: dizziness ([2]; MAD 10 mg): 1 case
- related TEAE: elevated blood triglycerides ([2]; MAD 10 mg): 2 cases
- related TEAE: nausea ([2]; MAD 10 mg): 1 case
- Grade 2 related AE: elevated blood triglycerides ([2]; MAD 10 mg group): 1 case
- related TEAE: elevated gamma-glutamyl transferase (γ-GT) ([2]; MAD 10 mg group): 1 case
- related TEAE: oral ulcer ([2]; MAD 10 mg group): 2 cases
- incidence of subjects experiencing TRAEs ([2]; MAD 10 mg group, 7 subjects): 70.0%
- incidence of subjects experiencing TEAE ([2]; MAD 10 mg group, 8 subjects): 80.0%
- related TEAE: diarrhea ([2]; MAD 20 mg): 1 case
- related TEAE: dizziness ([2]; MAD 20 mg): 1 case
- related TEAE: nausea ([2]; MAD 20 mg): 3 cases
- incidence of subjects experiencing TRAEs ([2]; MAD 20 mg group, 6 subjects): 66.7%
- incidence of subjects experiencing TEAE ([2]; MAD 20 mg group, 8 subjects): 88.9%
- related TEAE: dizziness ([2]; MAD 40 mg): 4 cases
- related TEAE: elevated blood triglycerides ([2]; MAD 40 mg): 3 cases
- related TEAE: nausea ([2]; MAD 40 mg): 1 case
- Grade 2 related AE: elevated blood cholesterol ([2]; MAD 40 mg group): 1 case
- Grade 2 related AE: elevated blood triglycerides ([2]; MAD 40 mg group): 1 case
- related TEAE: elevated gamma-glutamyl transferase (γ-GT) ([2]; MAD 40 mg group): 1 case
- incidence of subjects experiencing TRAEs ([2]; MAD 40 mg group, 6 subjects): 60.0%
- incidence of subjects experiencing TEAE ([2]; MAD 40 mg group, 8 subjects): 80.0%
- Grade 3 or higher TEAEs related to the investigational product ([2]; MAD trial): no Grade 3 or higher TEAEs
- related TEAE incidence: elevated gamma-glutamyl transferase (γ-GT) ([2]; MAD, 2/29): 6.9%
- related TEAE incidence: oral ulcer ([2]; MAD, 2/29): 6.9%
- related TEAE incidence: hyperuricemia ([2]; MAD, 2/29, both cases in the 40 mg group): 6.9%
- related TEAE incidence: diarrhea ([2]; MAD, 3/29): 10.3%
- related TEAE incidence: dry mouth ([2]; MAD, 3/29, all cases in the 10 mg group): 10.3%
- related TEAE incidence: headache ([2]; MAD, 3/29, exclusively observed in the 20 mg group): 10.3%
- related TEAE incidence: terminal insomnia ([2]; MAD, 3/29, limited to the 20 mg group): 10.3%
- related TEAE incidence: elevated blood triglycerides ([2]; MAD, 5/29): 17.2%
- related TEAE incidence: nausea ([2]; MAD, 5/29): 17.2%
- related TEAE incidence: dizziness ([2]; MAD, 6/29): 20.7%
- incidence of Grade 2 AEs related to the investigational product ([2]; MAD, HEC113995PA·H2O group, 3 cases): 10.3%
- incidence of subjects experiencing TRAEs ([2]; MAD, HEC113995PA·H2O trial group, 19 subjects, 48 TRAEs): 65.5%
- incidence of subjects experiencing TEAE ([2]; MAD, HEC113995PA·H2O trial group, 24 subjects, 85 incidents): 82.8%
- tolerability ([2]; healthy Chinese subjects, multiple doses range 10–40 mg daily): well tolerated
